Consider 14 compounds from ChEMBL document CHEMBL4346724, “Porphyrinoid photosensitizers mediated photodynamic inactivation against bacteria” (Eur J Med Chem, 2019).

Series [1] deals with Helicobacter pylori. The series is described as follows: Photodynamic antibacterial activity against Helicobacter pylori infected in patient assessed as bacterial eradication at 20 mg/lg, po after 4 hrs in presence of white light relative to control. It counts as functional.
In series [2] the test system is Helicobacter pylori. The series is described as follows: Photodynamic antibacterial activity against Helicobacter pylori infected in patient assessed as bacterial eradication at 20 mg/lg, po after 4 hrs in presence of blue light relative to control. In kind it is functional.
Series [3] relates to Aggregatibacter actinomycetemcomitans. The series is described as follows: Photodynamic antibacterial activity against Aggregatibacter actinomycetemcomitans assessed as reduction in bacterial viability at 10 uM in presence of light at 5.3 J/cm2 by propidium iodide staining-based fluorescence assay. It counts as functional.
Series [4] deals with Porphyromonas gingivalis. The series is described as follows: Photodynamic antibacterial activity against Porphyromonas gingivalis assessed as reduction in bacterial viability at 10 uM in presence of light at 5.3 to 20.1 J/cm2 by propidium iodide staining-based fluorescence assay. In kind it is functional.
The subject of series [5] is Aggregatibacter actinomycetemcomitans. The series is described as follows: Photodynamic antibacterial activity against Aggregatibacter actinomycetemcomitans assessed as reduction in bacterial viability at 10 uM in presence of light at 20.1 J/cm2 by propidium iodide staining-based fluorescence assay. In kind it is functional.
Series [6] relates to Capnocytophaga gingivalis. The series is described as follows: Photodynamic antibacterial activity against Capnocytophaga gingivalis assessed as reduction in bacterial viability at 10 uM in presence of light at 5.3 to 20.1 J/cm2 by propidium iodide staining-based fluorescence assay. In kind it is functional.
Series [7] relates to Eikenella corrodens. The series is described as follows: Photodynamic antibacterial activity against Eikenella corrodens assessed as reduction in bacterial viability at 10 uM in presence of light at 20.1 J/cm2 by propidium iodide staining-based fluorescence assay. In kind it is functional.
Series [8] relates to Fusobacterium nucleatum. The series is described as follows: Photodynamic antibacterial activity against Fusobacterium nucleatum assessed as reduction in bacterial viability at 10 uM in presence of light at 5.3 to 20.1 J/cm2 by propidium iodide staining-based fluorescence assay. In kind it is functional.
Series [9] deals with Pseudomonas aeruginosa. The series is described as follows: Photodynamic antibacterial activity against Pseudomonas aeruginosa assessed as biofilm formation at 0.5 mg/ml in presence of light at 100 J/cm2 relative to control. It counts as functional.
Series [10] has as its system Pseudomonas aeruginosa. The series is described as follows: Photodynamic antibacterial activity against Pseudomonas aeruginosa assessed as reduction in biofilm formation at 0.5 mg/ml in presence of light at 100 J/cm2. In kind it is functional.
The subject of series [11] is Enterococcus faecalis. The series is described as follows: Photodynamic antibacterial activity against Enterococcus faecalis assessed as reduction in bacterial burden in presence of light irradiation. It counts as functional, organism-based.
Series [12] deals with Escherichia coli. The series is described as follows: Photodynamic antibacterial activity against Escherichia coli assessed as reduction in bacterial burden at 5 uM after 15 mins in presence of light irradiation at 64.8 J/cm2. In kind it is functional, organism-based.
Series [13] concerns Staphylococcus aureus. The series is described as follows: Photodynamic antibacterial activity against Staphylococcus aureus assessed as reduction in biofilm activity at 2.5 uM incubated for 10 mins in presence of tungsten halogen lamp light exposure at 22.5 to 180 J/cm2. In kind it is functional.
Series [14] concerns Pseudomonas aeruginosa. The series is described as follows: Photodynamic antibacterial activity against Pseudomonas aeruginosa assessed as reduction in biofilm formation at 20 uM incubated for 10 mins in presence of tungsten halogen lamp light exposure at 22.5 to 180 J/cm2. It counts as functional.
Series [15] deals with Pseudomonas aeruginosa. The series is described as follows: Photodynamic antibacterial activity against Pseudomonas aeruginosa assessed as reduction in bacterial burden at 100 to 225 uM preincubated with bacteria followed by exposure of mercury vapor lamp light at 100 J/cm2 for 10 mins. It counts as functional.
For series [16], the system named is Enterococcus faecalis. The series is described as follows: Photodynamic antibacterial activity against Enterococcus faecalis assessed as reduction in bacterial burden at 5 uM after 15 mins in presence of light irradiation at 14.4 J/cm2. In kind it is functional.
Series [17] concerns Pseudomonas aeruginosa. The series is described as follows: Photodynamic antibacterial activity against Pseudomonas aeruginosa assessed as reduction in bacterial burden at 1 to 10 uM preincubated for 10 mins in dark condition followed by exposure of LED light at 66 to 266 J/cm2. In kind it is functional.
The test system of series [18] is Pseudomonas aeruginosa. The series is described as follows: Photodynamic antibacterial activity against Pseudomonas aeruginosa assessed as bacterial killing at 2.5 mg/ml in presence of light at 100 J/cm2 relative to control. It counts as functional.
The test system of series [19] is Pseudomonas aeruginosa. The series is described as follows: Photodynamic antibacterial activity against Pseudomonas aeruginosa assessed as reduction in bacterial burden at 225 uM in presence of light at 100 J/cm2. It counts as functional.
In series [20] the test system is Enterococcus faecalis. The series is described as follows: Photodynamic antibacterial activity against Enterococcus faecalis assessed as reduction in bacterial burden at 5 uM after 15 mins in presence of light irradiation at 64.8 J/cm2. In kind it is functional.
The test system of series [21] is Enterococcus faecalis. The series is described as follows: Photodynamic antibacterial activity against Enterococcus faecalis assessed as reduction in bacterial burden at 10 uM after 15 mins in presence of light irradiation at 64.8 J/cm2. It counts as functional.
Series [22] relates to Pseudomonas aeruginosa. The series is described as follows: Photodynamic antibacterial activity against Pseudomonas aeruginosa assessed as bacterial burden at 1 to 10 uM preincubated for 10 mins in dark condition followed by exposure of LED light at 66 to 266 J/cm2 relative to control. It counts as functional.
Series [23] relates to Pseudomonas aeruginosa. The series is described as follows: Photodynamic antibacterial activity against Pseudomonas aeruginosa assessed as reduction in biofilm formation at 5 mg/ml in presence of light at 100 J/cm2 relative to control. Set-up: scale not given: the % may be the effect or the level left. It counts as functional.
In series [24] the test system is Enterococcus faecalis. The series is described as follows: Photodynamic antibacterial activity against Enterococcus faecalis assessed as reduction in bacterial burden at 5 uM after 15 mins in presence of light irradiation at 21.6 J/cm2. It counts as functional.
In series [25] the test system is Saccharomyces cerevisiae. The series is described as follows: Photodynamic fungal activity against Saccharomyces cerevisiae assessed as reduction in fungal burden at 100 nM. In kind it is functional.
In series [26] the test system is Staphylococcus aureus. The series is described as follows: Photodynamic antibacterial activity against Staphylococcus aureus assessed as bacterial killing within 15 mins in presence of tungsten lamps light at 37 uEm'-2sec'-1 by spectrophotometic analysis relative to control. It counts as functional.
In series [27] the test system is Escherichia coli. The series is described as follows: Photodynamic antibacterial activity against Escherichia coli assessed as reduction in bacterial burden at 0.5 to 1 uM after 15 mins in presence of light irradiation at 1004 J/cm2. In kind it is functional.
Series [28] has as its system Enterococcus faecalis. The series is described as follows: Photodynamic antibacterial activity against Enterococcus faecalis assessed as reduction in bacterial burden at 10 uM in presence of light irradiation at 100 J/cm2. In kind it is functional.
Series [29] concerns Enterococcus faecalis. The series is described as follows: Dark toxicity against Enterococcus faecalis assessed as reduction in bacterial burden. In kind it is organism-based. Conditions: in vivo.
Series [30] relates to Enterococcus faecalis. The series is described as follows: Photodynamic antibacterial activity against Enterococcus faecalis assessed as reduction in bacterial burden at 30 uM in presence of light irradiation at 100 J/cm2. It counts as functional.
The test system of series [31] is Staphylococcus aureus. The series is described as follows: Photodynamic antibacterial activity against Staphylococcus aureus assessed as reduction in bacterial burden at 100 nM. In kind it is functional.
Series [32] has as its system Escherichia coli. The series is described as follows: Photodynamic antibacterial activity against Escherichia coli ATCC 25922 assessed as reduction in bacterial burden after 24 hrs in presence of diode laser at 6 J/cm2. In kind it is functional.

For the compound `NCC(=O)CCC(=O)O` [AMINOLEVULINIC ACID], the Activity stood at 85% in series [1] and 66% in series [2].

For the compound `CC[C@H](C)CCCCCCCCCCC(=O)OC[C@H]1O[C@@H](OC(=O)/C(C)=C/C=C/C(C)=C/C=C/C(C)=C/C=C/C=C(C)/C=C/C=C(\C)CCC=C(C)C)[C@H](O)[C@@H](O)[C@@H]1O`, the “log(activity)” value in [3] is -0.2; in series [4], 4.9; in [5] it was -1; in series [6], 6.7; in series [7], 3; in series [8], 5.3.

With `C[n+]1ccc(-c2c3nc(c(-c4cc[n+](C)cc4)c4ccc([nH]4)c(-c4cc[n+](C)cc4)c4nc(c(-c5cc[n+](C)cc5)c5ccc2[nH]5)C=C4)C=C3)cc1.Cc1ccc(S(=O)(=O)[O-])cc1.Cc1ccc(S(=O)(=O)[O-])cc1.Cc1ccc(S(=O)(=O)[O-])cc1.Cc1ccc(S(=O)(=O)[O-])cc1`, the Activity in [9] is reported as 99.9%. Besides, the “log(activity)” value in series [10] is reported as 4.

As to `C[n+]1ccc(-c2c3nc(c(-c4cc[n+](C)cc4)c4ccc([nH]4)c(-c4ccc(C(=O)O)cc4)c4nc(c(-c5ccc(C(=O)O)cc5)c5ccc2[nH]5)C=C4)C=C3)cc1`, the log(activity) in series [11] was 7.03; in series [12] it was greater than 3.

On to `CN(C)CCCOc1ccc(-c2c3nc(c(-c4ccc(OCCCN(C)C)cc4)c4ccc([nH]4)c(-c4ccc(OCCCN(C)C)cc4)c4nc(c(-c5ccc(OCCCN(C)C)cc5)c5ccc2[nH]5)C=C4)C=C3)cc1`, for which the “log(activity)” value in series [13] is 8; in series [14] it was 3.

Consider `C[n+]1ccc(-c2c3nc(c(-c4cc[n+](C)cc4)c4ccc([nH]4)c(-c4cc[n+](C)cc4)c4nc(c(-c5cc[n+](C)cc5)c5ccc2[nH]5)C=C4)C=C3)cc1.[I-].[I-].[I-].[I-]`, for which the “log(activity)” value in series [15] is recorded as 4.1; in series [16] it was 7.35; in series [17], less than 1; in series [19], 1.2; in series [20] it was 7.33; in [21], 5.07. Moreover, the “log(activity)” value in series [24] came to 7. The Activity in series [18] is greater than 99%; in [22] it was greater than 80%; in [23] it was greater than 99%.

With `CC1(C)Cc2cc3[nH]c(cc4nc(cc5[nH]c(cc1n2)cc5CN(CCO)CCO)CC4(C)C)cc3CN(CCO)CCO`, the “log(activity)” value in [25] was greater than 6.

Consider `C[n+]1ccc(-c2c3nc(c(-c4ccc(C(=O)O)cc4)c4ccc([nH]4)c(-c4cc[n+](C)cc4)c4nc(c(-c5ccc(C(=O)O)cc5)c5ccc2[nH]5)C=C4)C=C3)cc1`, for which the log(activity) is 0.88 in [11] and greater than 3 in [12].

In the case of `CC1=Cc2cc3[nH]c(cc4nc(cc5[nH]c(cc1n2)cc5C)C(C)=C4CCC(=O)O)c(CCC(=O)O)c3C`, the Activity in series [26] came out at 99.9%.

Turning to `C[n+]1ccc(-c2c3nc(c(-c4cc[n+](C)cc4)c4ccc([nH]4)c(-c4c(F)c(F)c(F)c(F)c4F)c4nc(c(-c5cc[n+](C)cc5)c5ccc2[nH]5)C=C4)C=C3)cc1.[I-].[I-].[I-]`, the “log(activity)” value in series [27] worked out at 3.

Take `Oc1cccc(-c2c3nc(c(-c4cccc(O)c4)c4ccc([nH]4)c(-c4cccc(O)c4)c4nc(c(-c5cccc(O)c5)c5ccc2[nH]5)CC4)C=C3)c1` [TEMOPORFIN]: the entries for the “log(activity)” value in series [28], in series [29] and in series [30] were 5.8, 1.5 and 6.7, respectively.

For `COC(=O)c1ccc(-c2c3nc(c(-c4cc[n+](C)cc4)c4ccc([nH]4)c(-c4cc[n+](C)cc4)c4nc(c(-c5cc[n+](C)cc5)c5ccc2[nH]5)C=C4)C=C3)cc1.[I-].[I-].[I-]`, the “log(activity)” value in series [24] came out at 7.

On to `CC1(C)Cc2cc3[nH]c(cc4nc(cc5[nH]c(cc1n2)cc5C(=O)NCC[N+](C)(C)C)CC4(C)C)cc3C(=O)NCC[N+](C)(C)C`, for which the “log(activity)” value in series [31] was 5.

`C=Cc1c(C)c2cc3nc(c(C=O)c4[nH]c(cc5nc(cc1[nH]2)C(C)=C5C)c(C)c4C(=O)O)[C@@H](CCC(=O)O)[C@@H]3C`: the “log(activity)” value in [32] is listed as 0.17.
